Structures can show the parent of a compound that is named as a salt. Each block holds one molecule with its values, some of them ahead of it.
What was measured:
[1] = test system: H9c2 rat cardiac myoblasts; assay: Morphological observation of muscle differentiation of myoblasts in DM; assay type: cell-based; settings: 72 hours in DM
Procedure: As a control, myoblasts were cultured in the absence of the drugs. Before use, the myoblasts were cultured to a cell confluency of about 70%.

[2] = test system: myogenin and MRF4; assay: Western blot of myogenic markers myogenin and MRF4; assay type: cell-based, rat
Procedure: In addition, the protein expression levels of the myogenin and MRF4, early and late myogenic markers, were determined by Western blot analysis. To this end, myoblast extracts treated with the drugs were separated on SDS-PAGE and transferred onto a nitrocellulose membrane which was then blocked and reacted with predetermined primary antibodies (polyclonal myogenic antibody and polyclonal MRF4 antibody (Santa Cruz, Calif., USA) and then with a secondary antibody (anti-rabbit IgG-HRP conjugate with a chemiluminescent reactive enzyme able to detect the primary antibodies) (Santa Cruz, Calif., USA). Finally, the specimens were detected by enhanced ECL-plus chemiluminescence (Amersham Pharmacia Biotech, Piscataway, N.J., USA). Non-myogenic β-actin protein was used as a loading control.

[3] = test system: H9c2 cardiac myoblasts; assay: Cell cycle and apoptosis (sub-G0/G1) by propidium iodide FACS; assay type: cell-based, rat; settings: DM 72 h
From the text: Using 20,000 cells obtained from each of the cultures, measurements were made of percentages of cells in each phase of the cell cycle (G0/G1, S and G2/M) and percentages of cells in sub-G0/G1 aliquots (that is, apoptotic cells).

[4] = test system: Bax; assay: Western blot of apoptosis-accelerating protein Bax; assay type: cell-based, rat; settings: DM; 1-10 μM CsA, 9 μM FK506, 200 nM ascomycin
From the text: The results are shown in the upper part of FIG. 6a. β-actin is used as a loading control.
After being scanned, the Western blot analysis bands were quantified by Bio-Rad imaging densitometer. The results are shown in the lower part of FIG. 6a. In the histograms, the bars express the Bax levels of the samples as mean±standard deviation values of the fold numbers compared to those of the control.

[5] = test system: mitochondria membrane potential; assay: Mitochondria membrane potential by DiOC6[3] flow cytometry; assay type: cell-based; settings: 48 hours in DM; 1-10 μM CsA, 9 μM FK506, 200 nM ascomycin
Procedure: H9c2 myoblasts cultured in PM and in DM in the absence of the drugs were measured for Δψm (control). In the FACS plots of FIG. 6b, the second peaks and the first peaks represent viable cells with high DiOC6[3] contents and dead cells with DiOC6[3]. Numerals mean percentages of the myoblasts with decreased Δψm.

[6] = test system: H9c2 myoblasts; assay: Apoptosis by in-situ TUNEL assay and DNA fragmentation analysis; assay type: cell-based, rat; settings: 72 hours in DM
Procedure: TUNEL analysis was performed using ApopTag Flurescein In situ Apoptosis Detection kit (Intergen, Purchase, N.Y.). The results are given in FIG. 2c where arrows indicate TUNEL positive cells.
Once cells undergo apoptosis, the DNA is digested into fragments diferring by 180-200 bp by endonuclease. […] DNA fragmentation aiming to identify the DNA laddering pattern was performed as follows. […] The cell lysates thus obtained were treated with 50 μg/ml RNase A at 37° C. for 2 hours and then with 500 μg/ml proteinase K at 55° C. for 2 hours. DNA was extracted by a phenol/chloroform method and precipitated in 70% (v/v) isopropanol. After being centrifuged at 15,000 rpm for 15 min, the precipitates were dissolved in a TE buffer (10 mM Tris-HCl (pH 8.0), 1 mM EDTA).

[7] = test system: calcineurin; assay: Calcineurin phosphatase activity in H9c2 myoblasts (BioMol Quantizyme assay); settings: for influence on basal calcineurin phosphatase activity / concentration at which maximal inhibitory effect on the increased calcineurin phosphatase activity was observed: H9c2 myoblasts; for inhibition of calcineurin phosphatase activity induced during muscle differentiation: H9c2 myoblasts in DM; for concentration at which maximal inhibitory effect on the increased calcineurin phosphatase activity was observed: activity induced by DM (2 days) and PE (12 h)
[8] = test system: transplanted myoblasts; settings: cited from earlier work
[9] = test system: H9c2 myoblasts; assay: Survival and morphology of CypA-transfected cells exposed to CsA or H2O2; assay type: cell-based, rat; settings: 10 μM CsA 72 h in DM; for protection from CsA- or H2O2-induced apoptotic cell death: 300 μM H2O2 12 h in DMEM/F-12
Procedure: Separately, the cells were exposed to 300 μM H2O2 for 12 hours in DMEM/F-12. […] Here, % cell survival is obtained by dividing […].

[10] = test system: ROS; assay: ROS content of CypA-transfected cells in DM with or without CsA (DCF FACS); assay type: cell-based, rat; settings: DM containing no CsA or 10 μM CsA
Procedure: These transfected cells were grown at 37° C. in the presence of 10 μM DCF, washed with PBS, resuspended in […] of PBS, and measured for ROS content by FACS analysis.

[11] = test system: PPIase activity; settings: cited from earlier work
[12] = test system: Bax; assay: Bax expression in CypA-transfected cells exposed to CsA or H2O2 (Western blot); assay type: cell-based, rat; settings: exposed to CsA; similar results with H2O2
From the text: In the histograms of FIG. 7f, bars express the Bax levels in the samples as percentages compared to the mock-transfected cells.

[13] = test system: H9c2 myoblasts; assay: Muscle differentiation of CypA-transfected cells in DM (morphology, time required); assay type: cell-based, rat; settings: for time required for muscle differentiation: transfected H9c2 cells in DM, mock control 4-5 days; for muscle differentiation in DM: transfected H9c2 cells, no CsA
Procedure: To determine the role of CypA, that is, PPIase, in muscle differentiation, time periods required for the complete differentiation of the three CypA gene-transfected cells, CypA/wt, CypA/W121F and CypA/R55A were measured while they were cultured in DM. In addition, their morphological changes were observed when they were completely differentiated.

[14] = test system: H9c2 myoblasts; assay: Effect of antioxidants on muscle differentiation (morphology); assay type: cell-based, rat; settings: 5 days in DM; 0.4 mM DFOM, 2000 units/ml catalase, 10 mM Tiron
Procedure: H9c2 myoblasts were cultured for 5 days in DM containing 0.4 mM of DFOM, 2000 units/ml of catalase, 10 mM of Tiron (4,5-dihydroxy-1,3-benzene-disulfonic acid) to induce differentiation, during which morphological changes were observed. The control is the myoblasts which were induced to differentiate in the absence of […].

[15] = test system: ROS; assay: Cellular ROS level by DCF flow cytometry (FACS); assay type: cell-based, rat; settings: 10 μM, 24 hours in DM
Procedure: H9c2 myoblasts were cultured for 24 hours in PM and in DM, and then in the presence of 10 μM DCF (2′,7′-dichlorofluorescein). After being harvested, the cells were washed once with PBS and resuspended in […] of PBS. The cellular levels of ROS generated were measured by flow cytometry (FACS), there values were regarded as controls. […] ROS levels were analyzed by FACS. […] ROS levels were measure as the above. The results are given in FIG. 5a where numerals indicate mean±standard deviation values of the ROS levels in the cells.

morphological changes during muscle differentiation [1]: no morphological differences
mitochondria membrane potential (Δψm) [5]: not observed
influence on basal calcineurin phosphatase activity [7]: no influence
inhibition of calcineurin phosphatase activity induced during muscle differentiation [7]: completely inhibit
concentration at which maximal inhibitory effect on the increased calcineurin phosphatase activity was observed [7]: 20 nM
Molecule: CC[C@@H]1/C=C(\C)C[C@H](C)C[C@H](OC)[C@H]2O[C@@](O)(C(=O)C(=O)N3CCCC[C@H]3C(=O)O[C@H](/C(C)=C/[C@@H]3CC[C@@H](O)[C@H](OC)C3)[C@H](C)[C@@H](O)CC1=O)[C@H](C)C[C@@H]2OC [ascomycin]
myogenin and MRF4 protein expression ([2]; FK506, ascomycin in DM): no influence
% Apoptosis (sub-G0/G1 fraction) ([3]; Ascomycin 200 nM): 10 ± 3%
% G0/G1 ([3]; Ascomycin 200 nM): 85 ± 3%
% G2/M ([3]; Ascomycin 200 nM): 4 ± 1%
% S ([3]; Ascomycin 200 nM): 2 ± 1%
Bax expression [4]: do not affect
apoptosis (TUNEL, DNA laddering) [6]: not related to apoptosis

Molecule: O=P1(N(CCCl)CCCl)NCCCO1 (stereo not shown) [cyclophosphamide]
success of allogenic myoblast transplantation ([8]; in vivo): did not increase the survival

Molecule: CypA/W121F: mutated rat CypA with phenylalanine instead of tryptophan at position 121, transfected into H9c2 myoblasts
protection from differentiation blockage [9]: not from differentiation blockage
protection from CsA- or H2O2-induced apoptotic cell death [9]: protect cells
ROS level [10]: removed a greater amount of ROS than did CypA/wt
PPIase activity compared to the wild type protein [11]: half
Bax expression [12]: inhibited Bax expression
time required for muscle differentiation [13]: 14 to 15 days
muscle differentiation in DM [13]: undergo muscle differentiation

morphological changes during muscle differentiation [1]: no morphological differences
mitochondria membrane potential (Δψm) [5]: not observed
influence on basal calcineurin phosphatase activity [7]: no influence
inhibition of calcineurin phosphatase activity induced during muscle differentiation [7]: completely inhibit
Molecule: C=CC[C@@H]1/C=C(\C)C[C@H](C)C[C@H](OC)[C@H]2O[C@@](O)(C(=O)C(=O)N3CCCC[C@H]3C(=O)O[C@H](/C(C)=C/[C@@H]3CC[C@@H](O)[C@H](OC)C3)[C@H](C)[C@@H](O)CC1=O)[C@H](C)C[C@@H]2OC [FK506, tacrolimus]
success rate of myoblast transplantation ([8]; clinical trials and animal model studies): ≥ 95%
myogenin and MRF4 protein expression ([2]; FK506, ascomycin in DM): no influence
% Apoptosis (sub-G0/G1 fraction) ([3]; FK506 9 μM): 11 ± 3%
% G0/G1 ([3]; FK506 9 μM): 83 ± 5%
% G2/M ([3]; FK506 9 μM): 4 ± 1%
% S ([3]; FK506 9 μM): 4 ± 1%
Bax expression [4]: do not affect
apoptosis (TUNEL, DNA laddering) [6]: not related to apoptosis
concentration at which maximal inhibitory effect on the increased calcineurin phosphatase activity was observed [7]: 1000 nM

Molecule: CypA/R55A: mutated rat CypA with alanine instead of arginine at position 55, transfected into H9c2 myoblasts
protection from CsA- or H2O2-induced apoptotic cell death [9]: increases ROS-induced apoptosis
ROS level [10]: significantly increased ROS generation
PPIase activity compared to the wild type protein [11]: one thousandth
Bax expression [12]: increased Bax expression
muscle differentiation in DM [13]: no traces of differentiation

Molecule: O=S(=O)(O)c1cc(O)c(O)c(S(=O)(=O)O)c1 [Tiron, 4,5-dihydroxy-1,3-benzene-disulfonic acid]
effect on muscle differentiation [14]: blocking activity

Molecule: CypA/wt: wild type rat brain CypA gene transfected into and overexpressed in H9c2 rat cardiac myoblasts
protection from differentiation blockage [9]: not from differentiation blockage
protection from CsA- or H2O2-induced apoptotic cell death [9]: protect cells
ROS level [10]: reduced the ROS level
Bax expression [12]: inhibited Bax expression
time required for muscle differentiation [13]: 8 to 9 days
muscle differentiation in DM [13]: undergo muscle differentiation

Molecule: C/C=C/C[C@@H](C)[C@@H](O)[C@H]1C(=O)N[C@@H](CC)C(=O)N(C)CC(=O)N(C)[C@@H]([C@@H](C)CC)C(=O)N[C@@H](C(C)C)C(=O)N(C)[C@@H](CC(C)C)C(=O)N[C@@H](C)C(=O)N[C@H](C)C(=O)N(C)[C@@H](CC(C)C)C(=O)N(C)[C@@H](CC(C)C)C(=O)N(C)[C@@H](C(C)C)C(=O)N1C [SDZ NIM811]
morphological changes during muscle differentiation [1]: blocks the myoblast differentiation
myogenin and MRF4 protein expression ([2]; 1 μM, DM): partial suppression
myogenin and MRF4 protein expression ([2]; concentrations higher than 1 μM, DM): complete suppression
apoptosis (TUNEL, DNA laddering) [6]: dose dependent
ROS level (mean±standard deviation) [15]: 634±20

Molecule: CC(=O)N(O)CCCCCNC(=O)CCC(=O)N(O)CCCCCNC(=O)CCC(=O)N(O)CCCCCN [DFOM, deferoxamine mesylate]
effect on muscle differentiation [14]: blocking activity

B1: catalase: antioxidant enzyme purchased from Sigma (protein, UniProt P00432 2-527, looked up)
Catalase: ADNRDPASDQMKHWKEQRAAQKPDVLTTGGGNPVGDKLNSLTVGPRGPLLVQDVVFTDEMAHFDRERIPERVVHAKGAGAFGYFEVTHDITRYSKAKVFEHIGKRTPIAVRFSTVAGESGSADTVRDPRGFAVKFYTEDGNWDLVGNNTPIFFIRDALLFPSFIHSQKRNPQTHLKDPDMVWDFWSLRPESLHQVSFLFSDRGIPDGHRHMNGYGSHTFKLVNANGEAVYCKFHYKTDQGIKNLSVEDAARLAHEDPDYGLRDLFNAIATGNYPSWTLYIQVMTFSEAEIFPFNPFDLTKVWPHGDYPLIPVGKLVLNRNPVNYFAEVEQLAFDPSNMPPGIEPSPDKMLQGRLFAYPDTHRHRLGPNYLQIPVNCPYRARVANYQRDGPMCMMDNQGGAPNYYPNSFSAPEHQPSALEHRTHFSGDVQRFNSANDDNVTQVRTFYLKVLNEEQRKRLCENIAGHLKDAQLFIQKKAVKNFSDVHPEYGSRIQALLDKYNEEKPKNAVHTYVQHGSHLSAREKANL
effect on muscle differentiation [14]: blocking activity

— patent publication US20080181875A1, “USE OF CYCLOPHILIN AS ANTIOXIDANT AND PREVENTION OF CYCLOSPORIN A-INDUCED TOXICITY IN CELL TRANSPLANTATION BY OVEREXPRESSION OF CYCLOPHILIN” (priority 2002, published 2008)
